Results as given in ChEMBL document CHEMBL1151680, “Cytotoxic amides from the octocoral Telesto riisei” (1996).
≈ marks a conversion by molar mass, not a printed value.

Tested on: P388
Assay: Cytotoxicity against mouse P388 cells
Assay type: functional
Details: read-out: ED50 (the source's name)

SMILES | EC50 [µg/mL]
CC(=O)OCC(C)CCC[C@@H](C)[C@H]1CC[C@H]2[C@@H]3C[C@@H](O)[C@@]4(O)C[C@@H](O)CC[C@]4(C)[C@H]3CC[C@]12C (some centres not stated) | 2.4 (≈ 5.01 µM)
CC(CO)CCC[C@@H](C)[C@H]1CC[C@H]2[C@@H]3C[C@@H](O)[C@@]4(O)C[C@@H](O)CC[C@]4(C)[C@H]3CC[C@]12C (some centres not stated) | 1.3 (≈ 2.98 µM)
